Assay: Drug release assay (hydrolysis rate test in pH 7.4 / pH 2.0 buffer, HPLC)
Assay type: physicochemical
Conditions: for Hydrolysis constant Kh pH 2.0 / Hydrolysis constant Kh pH 7.4: Kh=-ln[100%-Release rate (%)]/t; for Release rate (%) pH 2.0 (6 h): pH 2.0 buffer solution; for Release rate (%) pH 2.0 (6 h) / Release rate (%) pH 7.4 (0.5 h) / Release rate (%) pH 7.4 (6 h): 37° C., 200 rpm, residual content relative to 0 h by HPLC; for Release rate (%) pH 7.4 (0.5 h) / Release rate (%) pH 7.4 (6 h): pH 7.4 buffer solution
Experimental: Preparation of pH2.0 Buffer Solution
Preparation of pH7.4 Buffer Solution
Method of Hydrolysis Rate Test
The compounds were dissolved in pH7.4/pH2.0 buffer solution, placed in a constant temperature shaker at 37° C. and 200 rpm, and sampled at 0 h, 0.5 h and 6 h respectively. The residual contents of the compounds relative to 0 h were tested at each time point.
The release rates (%) were calculated using the following equation: Release rate (%)=[A(0h)−A(xh)]/A(0h)×100%, (x=0, 0.5, 6), A(xh) is the peak area of compounds tested by HPLC at the indicated time point.
The hydrolysis constants (Kh) were calculated using the following equation: Hydrolysis constant Kh=−ln[100%−Release rate (%)]/t Results

Row | SMILES | Hydrolysis constant Kh pH 2.0 | Release rate (%) pH 2.0 (6 h) [%] | Hydrolysis constant Kh pH 7.4 | Release rate (%) pH 7.4 (0.5 h) [%] | Release rate (%) pH 7.4 (6 h) [%]
1 | CCCCN(CCCC)c1ccc(N2CCC(CCOC(=O)OCn3cc(F)c(=O)[nH]c3=O)CC2)cc1 [Example 1, 2-(1-(4-(Dibutylamino)phenyl)piperidin-4-yl)ethyl ((5-fluoro-2,4-dioxo-3,4-dihydropyrimidin-1(2H)-yl)methyl) carbonate] | <0.001 | 0 | 0.111 | 5.4 | 64
2 | CCCN(CCC)c1ccc(-c2ccc(OC(=O)OCn3cc(F)c(=O)[nH]c3=O)cc2)cc1 [Example 2, 4′-(Dipropylamino)-[1,1′-biphenyl]-4-yl ((5-fluoro-2,4-dioxo-3,4-dihydropyrimidin-1(2H)-yl)methyl) carbonate] | 0.080 | 38 | 2.375 | 69.5 | 89
3 | CCCCCN(CCCCC)c1ccc(OC(=O)OCn2cc(F)c(=O)[nH]c2=O)cc1 [Example 3, 4-(Dipentylamino)phenyl ((5-fluoro-2,4-dioxo-3,4-dihydropyrimidin-1(2H)-yl)methyl) carbonate] | 0.153 | 60 | 1.873 | 60.8 | 100
4 | Cc1cc(C)cc(N2CCC(c3ccc(OC(=O)OCn4cc(F)c(=O)[nH]c4=O)cc3)CC2)c1 [Example 4, 4-(1-(3,5-Dimethylphenyl)piperidin-4-yl)phenyl ((5-fluoro-2,4-dioxo-3,4-dihydropyrimidin-1(2H)-yl)methyl) carbonate] | 0.039 | 21 | 3.509 | 82.7 | 98
5 | CCCc1ccc(N2CCc3cc(OC(=O)OCn4cc(F)c(=O)[nH]c4=O)ccc3C2)cc1 [Example 5, (5-Fluoro-2,4-dioxo-3,4-dihydropyrimidin-1(2H)-yl)methyl (2-(4-propylphenyl)-1,2,3,4-tetrahydroisoquinolin-6-yl) carbonate] | 0.137 | 56 | 5.838 | 94.6 | 95
6 | CCCc1ccc(N2CCC(Cc3ccc(OC(=O)OCn4cc(F)c(=O)[nH]c4=O)cc3)CC2)cc1 [Example 6, (5-Fluoro-2,4-dioxo-3,4-dihydropyrimidin-1(2H)-yl)methyl (4-((1-(4-propylphenyl)piperidin-4-yl)methyl)phenyl) carbonate] | 0.033 | 18 | 3.521 | 82.8 | 75
7 | O=C(OCn1cc(F)c(=O)[nH]c1=O)Oc1ccc(C2CCN(CC(c3ccccc3)c3ccccc3)CC2)cc1 [Example 7, 4-(1-(2,2-Diphenylethyl)piperidin-4-yl)phenyl ((5-fluoro-2,4-dioxo-3,4-dihydropyrimidin-1(2H)-yl)methyl) carbonate] | 0.029 | 16 | 9.924 | 99.3 | 92
8 | O=C(OCn1cc(F)c(=O)[nH]c1=O)Oc1ccc(C2CCN(CC34CC5CC(CC(C5)C3)C4)CC2)cc1 [Example 8, 4-(1-(Adamantan-1-ylmethyl)piperidin-4-yl)phenyl ((5-fluoro-2,4-dioxo-3,4-dihydropyrimidin-1(2H)-yl)methyl) carbonate] | 0.041 | 22 | 11.043 | 99.6 | 99
9 | O=C(OCn1cc(F)c(=O)[nH]c1=O)Oc1ccc(CC2CCN(C(c3ccccc3)c3ccccc3)CC2)cc1 [Example 9, 4-((1-Benzhydrylpiperidin-4-yl)methyl)phenyl ((5-fluoro-2,4-dioxo-3,4-dihydropyrimidin-1(2H)-yl)methyl) carbonate] | 0.027 | 15 | 4.508 | 89.5 | 90
10 | CCCCC1CCN(c2ccc(CCOC(=O)n3cc(F)c(=O)[nH]c3=O)cc2)CC1 [Example 10, 4-(4-Butylpiperidin-1-yl)phenethyl 5-fluoro-2,4-dioxo-3,4-dihydropyrimidine-1(2H)-carboxylate] | 0.077 | 37 | 0.256 | 12.0 | 54
11 | CCCCN(CCCC)c1ccc(N2CCC(CCOC(=O)n3cc(F)c(=O)[nH]c3=O)CC2)cc1 [Example 11, 2-(1-(4-(Dibutylamino)phenyl)piperidin-4-yl)ethyl 5-fluoro-2,4-dioxo-3,4-dihydropyrimidine-1(2H)-carboxylate] | 0.067 | 33 | 0.117 | 5.7 | 83
12 | CC[C@@]1(O)C(=O)OCc2c1cc1n(c2=O)Cc2cc3cc(OC(=O)CC4CCN(CC(c5ccccc5)c5ccccc5)CC4)ccc3nc2-1 [Example 13, (S)-4-ethyl-4-hydroxy-3,14-dioxo-3,4,12,14-tetrahydro-1H-pyrano[3′,4′:6,7]indolizino[1,2-b]quinolin-9-yl 2-(1-(2,2-diphenylethyl)piperidin-4-yl)acetate] | <0.001 | 0.5 | 0.042 | 2.1 | 23.3
13 | CCc1c2c(nc3ccc(OC(=O)[C@@H]4CCCN4C(c4ccccc4)c4ccccc4)cc13)-c1cc3c(c(=O)n1C2)COC(=O)[C@]3(O)CC [Example 14, (S)-4,11-diethyl-4-hydroxy-3,14-dioxo-3,4,12,14-tetrahydro-1H-pyrano[3′,4′:6,7]indolizino[1,2-b]quinolin-9-yl benzhydrylprolinate] | 0.015 | 8.4 | 3.876 | 85.6 | 84.4
14 | CCc1c2c(nc3ccc(OC(=O)NCC4CCCN4C(c4ccccc4)c4ccccc4)cc13)-c1cc3c(c(=O)n1C2)COC(=O)[C@]3(O)CC (stereo partly drawn) [Example 16, (S)-4,11-diethyl-4-hydroxy-3,14-dioxo-3,4,12,14-tetrahydro-1H-pyrano[3′,4′:6,7]indolizino[1,2-b]quinolin-9-yl ((1-benzhydrylpyrrolidin-2-yl)methyl)carbamate] | <0.001 | 0.4 | 6.540 | 96.2 | 100

Source: patent US12729186B2, “Prodrugs for sustained releasing therapeutic agents and uses thereof” (LIANGJIANG MEDICINE CO., LTD., priority 2020, dated 2026)
